Test results taken from PMC6627698, “Redesigning Arenicin-1, an Antimicrobial Peptide from the Marine Polychaeta Arenicola marina, by Strand Rearrangement or Branching, Substitution of Specific Residues, and Backbone Linearization or Cyclization” (Marine Drugs, 2019).
pIC50: −log10 of the molar value. Residues, ends and D or L forms follow the SMILES beside them.

Experiments:
E. coli ATCC 25922 = format: cell-based, Escherichia coli; settings: ATCC 25922, 18 h
Description: (§1) E. coli ML35p, Listeria monocytogenes EGD, methicillin-resistant Staphylococcus aureus (MRSA) ATCC 33591 were kindly provided by Prof. Robert Lehrer (University of California, Los Angeles, CA, USA); E. coli ATCC 25922, E. coli M15, Pseudomonas aeruginosa ATCC 27853, S. aureus ATCC 25923 were provided by Dr. Elena Ermolenko (Institute of Experimental Medicine, St-Petersburg, Russia); drug-resistant clinical isolates were provided by Prof. Gennadiy Afinogenov (Saint Petersburg State University, Russia); S. aureus 710A has been described previously. The following clinical isolates of bacteria were used: P.s aeruginosa resistant to aztreonam, ceftazidime, cefotaxime (obtained from the urine of a patient with cystitis), Acinetobacter baumannii resistant to meropenem (from an infected wound); Staphylococcus intermedius (from an infected wound caused by a dog bite) resistant to ciprofloxacin, cefuroxime, clindamycin, erythromycin, rifampin, gentamicin, benzylpenicillin, oxacillin.
(§2) This assay was applied to determine the MIC, according to the guidelines of the Clinical and Laboratory Standards Institute, using Mueller Hinton (MH) Broth. We prepared 2x stocks of peptides and serially diluted them in sterile PBS instead of Mueller Hinton Broth, so that the treatment of the bacteria with the peptides was carried out in a medium containing 50% of MH and 50% of PBS, as described. The overnight cultures of each strain were transferred to fresh MH media and further incubated to obtain a mid-logarithmic-growth-phase culture of bacteria. The absorbance of each bacterial suspension was measured at 620 nm, and bacteria were then diluted to approximately 2 × 10^5 CFU/mL. Then, 50 µL of the suspensions were mixed with 50 µL of the peptide dilutions in the wells of a microtiter plate (pre-treated for 1 h at 37 °C with 0.2% bovine serum albumin (BSA) in water, sterilized by filtration, to diminish the non-specific binding of the peptides to the plastic surfaces).

E. coli M15 = format: cell-based, Escherichia coli; settings: M15, 18 h
Description: as §1, §2

Escherichia coli ML35p = format: cell-based; settings: broth microdilution, 50% Mueller Hinton broth / 50% PBS, 18 h at 37 °C, median of 3–5 experiments in triplicates
Description: as §1, §2

[1] = test system: Listeria monocytogenes EGD; format: cell-based; settings: 18 h
Description: as §1, §2

[2] = test system: Pseudomonas aeruginosa ATCC 27853; format: cell-based; settings: ATCC 27853, 18 h
Description: as §1, §2

[3] = test system: Staphylococcus aureus 710A; format: cell-based; settings: 18 h
Description: as §1, §2

MRSA ATCC 33591 = format: cell-based, Staphylococcus aureus; settings: ATCC 33591, 18 h
Description: as §1, §2

S. aureus ATCC 25923 = format: cell-based, Staphylococcus aureus; settings: ATCC 25923, 18 h
Description: as §1, §2

S. aureus c.i. = format: cell-based, Staphylococcus aureus; settings: 18 h
Description: as §1, §2

P. aeruginosa c.i. = format: cell-based, Pseudomonas aeruginosa; settings: 18 h
Description: as §1, §2

[4] = test system: Acinetobacter baumanii c.i.; format: cell-based, Acinetobacter baumannii; settings: 18 h
Description: as §1, §2

[5] = test system: Staphylococcus intermidius; format: cell-based, Staphylococcus intermedius; settings: 18 h
Description: as §1, §2

[6] = test system: set of Gram-negative and Gram-positive bacteria, including drug-resistant clinical isolates; format: cell-based; settings: 12 strains; median MICs used; MIC > 16 µM taken as 32 µM
Description: To obtain a global assessment of the effect on antimicrobial activity, the geometric mean of the MIC (G-MIC) was calculated, and from this, the overall improvement or impoverishment with respect to arenicin-1. In general, inverting the symmetry or decreasing the charge had detrimental effects.
The overall activity against a set of tested bacterial strains was determined by way of the commonly used geometric mean of measured MIC values. […] At the same time, the geometric mean can still discriminate antimicrobial agents showing minor variations in activity; in other words, it has a better “resolution” than the median MIC (MIC50). Some mathematical basics for choosing the geometric mean for antimicrobial activity comparison are further discussed in the Supplementary Chapter S3.

[7] = test system: human erythroleukemia K-562 cells; format: cell-based; settings: 24 h
Description: The standard MTT ((3-(4,5-Dimethylthiazol-2-yl)-2,5-diphenyltetrazolium bromide) test was used for the examination of the cytotoxic activity of AMPs towards human erithroleukemia cells K-562. The cells were purchased from Biolot (Saint Petersburg, Russia) and were grown in RPMI 1640 medium (Biolot, Saint Petersburg, Russia) supplemented with glutamine and 10% FCS. Before the experiment, the culturing medium was replaced with serum-free RPMI 1640. Serial dilutions of the peptides in RPMI were plated in sterile 96-well microplates, and the target cells were dispensed to the microplates (10^5 cells/well in RPMI 1640). The plates were incubated for 24 h at 37 °C under 5% CO2. Cell-free media and cells incubated without peptides served as controls. Four hours before the incubation ended, MTT in PBS (5 mg/mL) was added to each well. After the incubation was stopped by adding isopropanol/ 0.04 M HCl, the optical density was measured at 540 nm, subtracting the background absorbance at 690 nm. Toxicity was determined by nonlinear regression analysis of the corresponding dose–response curves using the Sigma Plot 11 program to calculate the IC50 values (the concentration of the test substance that reduced the OD540 capacity by 50%).

SMILES	Minimal Inhibitory Concentrations (MIC) (E. coli ATCC 25922)	Minimal Inhibitory Concentrations (MIC) (E. coli M15)	Minimal Inhibitory Concentrations (MIC) (Escherichia coli ML35p)	Minimal Inhibitory Concentrations (MIC) [1]	Minimal Inhibitory Concentrations (MIC) [2]	Minimal Inhibitory Concentrations (MIC) [3]	Minimal Inhibitory Concentrations (MIC) (MRSA ATCC 33591)	Minimal Inhibitory Concentrations (MIC) (S. aureus ATCC 25923)	Minimal Inhibitory Concentrations (MIC) (S. aureus c.i.)	Minimal Inhibitory Concentrations (MIC) (P. aeruginosa c.i.)	Minimal Inhibitory Concentrations (MIC) [4]	Minimal Inhibitory Concentrations (MIC) [5]	G-MIC (geometric mean of all determined MICs) [6]	pIC50 [7]
CC(C)C[C@@H]1NC(=O)[C@H](C(C)C)NC(=O)[C@H](CCCNC(=N)N)NC(=O)[C@H](Cc2ccc(O)cc2)NC(=O)[C@H](CCCNC(=N)N)NC(=O)[C@H](CCCNC(=N)N)NC(=O)[C@@H](NC(=O)[C@@H](N)Cc2c[nH]c3ccccc23)CSSC[C@H](NC(=O)[C@@H](N)Cc2c[nH]c3ccccc23)C(=O)N[C@@H](CCCNC(=N)N)C(=O)N[C@@H](CCCNC(=N)N)C(=O)N[C@@H](Cc2ccc(O)cc2)C(=O)N[C@@H](CCCNC(=N)N)C(=O)N[C@@H](C(C)C)C(=O)N[C@@H](CC(C)C)C(=O)N[C@@H](C(C)C)C(=O)N[C@H](C(=O)N[C@@H](CN)C(N)=O)CCCNC(=O)[C@H](C(C)C)NC1=O [ARs-C-B] (HELM PEPTIDE1{W.C.R.R.Y.R.V.L.V.[Orn].[NC[C@H](N[*:1])C(=O)[*:2]].[am]}|PEPTIDE2{W.C.R.R.Y.R.V.L.V}$PEPTIDE1,PEPTIDE2,2:R3-2:R3|PEPTIDE1,PEPTIDE2,10:R3-9:R2$$$V2.0; N-terminus assumed)	4 µM	8 µM	1 to 2 µM	2 µM	1 µM	4 µM	8 µM	4 µM	4 to 8 µM	16 µM	8 to 16 µM	4 µM	4.4 µM	4.41
CC(C)C[C@@H]1NC(=O)[C@H](C(C)C)NC(=O)CNC(=O)[C@H](CCCNC(=N)N)NC(=O)[C@H](C(C)C)NC(=O)[C@H](CC(C)C)NC(=O)[C@H](C(C)C)NC(=O)[C@H](CCCNC(=N)N)NC(=O)[C@H](Cc2ccc(O)cc2)NC(=O)[C@H](CCCNC(=N)N)NC(=O)[C@H](CCCNC(=N)N)NC(=O)[C@@H](NC(=O)[C@@H](N)Cc2c[nH]c3ccccc23)CSSC[C@@H](C(=O)N[C@@H](Cc2c[nH]c3ccccc23)C(=O)O)NC(=O)[C@H](CCCNC(=N)N)NC(=O)[C@H](CCCNC(=N)N)NC(=O)[C@H](Cc2ccc(O)cc2)NC(=O)[C@H](CCCNC(=N)N)NC(=O)[C@H](C(C)C)NC1=O [ARs-C] (HELM PEPTIDE1{W.C.R.R.Y.R.V.L.V.R.G.V.L.V.R.Y.R.R.C.W}$PEPTIDE1,PEPTIDE1,2:R3-19:R3$$$V2.0; N-terminus assumed)	2 µM	2 µM	1 µM	1 µM	1 µM	2 to 4 µM	4 to 8 µM	4 µM	16 µM	16 µM	2 µM	8 µM	3.2 µM	4.94
CC(C)[C@@H]1NC(=O)[C@H](CCCNC(=N)N)NC(=O)[C@H](C(C)C)NC(=O)[C@H](Cc2ccc(O)cc2)NC(=O)[C@H](C)NC(=O)[C@H](Cc2ccc(O)cc2)NC(=O)[C@H](C(C)C)NC(=O)[C@@H](NC(=O)[C@H](Cc2c[nH]c3ccccc23)NC(=O)[C@@H](N)CCCNC(=N)N)CSSC[C@H](NC(=O)[C@H](Cc2c[nH]c3ccccc23)NC(=O)[C@@H](N)CCCNC(=N)N)C(=O)N[C@@H](C(C)C)C(=O)N[C@@H](Cc2ccc(O)cc2)C(=O)N[C@@H](C)C(=O)N[C@@H](Cc2ccc(O)cc2)C(=O)N[C@@H](C(C)C)C(=O)N[C@@H](CCCNC(=N)N)C(=O)N[C@@H](C(C)C)C(=O)N[C@H](C(=O)N[C@@H](CN)C(N)=O)CCCNC1=O [ARs-N-B] (HELM PEPTIDE1{R.W.C.V.Y.A.Y.V.R.V.[Orn].[NC[C@H](N[*:1])C(=O)[*:2]].[am]}|PEPTIDE2{R.W.C.V.Y.A.Y.V.R.V}$PEPTIDE1,PEPTIDE2,3:R3-3:R3|PEPTIDE1,PEPTIDE2,11:R3-10:R2$$$V2.0)	8 µM	4 µM	4 µM	2 to 4 µM	2 µM	8 µM	8 µM	8 µM	8 µM	16 µM	4 µM	8 µM	5.9 µM	4.45
CC(C)[C@@H]1NC(=O)CNC(=O)[C@H](CCCNC(=N)N)NC(=O)[C@H](C(C)C)NC(=O)[C@H](CCCNC(=N)N)NC(=O)[C@H](C(C)C)NC(=O)[C@H](Cc2ccc(O)cc2)NC(=O)[C@H](C)NC(=O)[C@H](Cc2ccc(O)cc2)NC(=O)[C@H](C(C)C)NC(=O)[C@@H](NC(=O)[C@H](Cc2c[nH]c3ccccc23)NC(=O)[C@H](CCCNC(=N)N)NC(=O)[C@@H](N)CCCNC(=N)N)CSSC[C@@H](C(=O)N[C@@H](Cc2c[nH]c3ccccc23)C(=O)O)NC(=O)[C@H](C(C)C)NC(=O)[C@H](Cc2ccc(O)cc2)NC(=O)[C@H](C)NC(=O)[C@H](Cc2ccc(O)cc2)NC(=O)[C@H](C(C)C)NC(=O)[C@H](CCCNC(=N)N)NC1=O [ARs-N] (HELM PEPTIDE1{R.R.W.C.V.Y.A.Y.V.R.V.R.G.V.R.V.Y.A.Y.V.C.W}$PEPTIDE1,PEPTIDE1,4:R3-21:R3$$$V2.0; N-terminus assumed)	>16 µM	>16 µM	16 µM	8 µM	>16 µM	>16 µM	>16 µM	>16 µM	>16 µM	>16 µM	>16 µM	>16 µM	≥26.9 µM	4.74
